Measurements reported in ChEMBL document CHEMBL2346504, “Olive secoiridoids and semisynthetic bioisostere analogues for the control of metastatic breast cancer” (Bioorg Med Chem, 2013).
The source made the active and inactive calls. The calls are words filed in the database; no cut-off is given here.

Assays:
MCF-10A [1] = test: Cytotoxicity against human MCF10A cells at IC50 in wound healing assay after 24 hrs by MTT assay; format: cell-based
MCF-10A [2] = test: Cytotoxicity against human MCF10A cells at IC50 in MDA-MB-231 MTT assay after 24 hrs by MTT assay; format: cell-based
MDA-MB-231 [3] = test: Antiinvasive activity against human MDA-MB-231 cells at 10 to 20 uM after 24 hrs by Cultrex BME assay; format: functional, cell-based
MDA-MB-231 [4] = test: Cytotoxicity against human MDA-MB-231 cells after 24 hrs by MTT assay; details: MDA-MB-231, 24 h
MDA-MB-231 [5] = test: Antimigratory activity against human MDA-MB-231 cells after 24 hrs by wound healing assay; details: MDA-MB-231, 24 h
MDA-MB-231 [6] = test: Antimigratory activity against human MDA-MB-231 cells at 25 uM after 24 hrs by wound healing assay; format: functional; details: for inhibition at 25 µM: MDA-MB-231, 24 h
MDA-MB-231 [7] = test: Antiinvasive activity against human MDA-MB-231 cells assessed as cell invasion at 20 uM after 24 hrs by Cultrex BME assay; format: functional
MDA-MB-231 [8] = test: Antiinvasive activity against human MDA-MB-231 cells assessed as cell invasion at 10 uM after 24 hrs by Cultrex BME assay; format: functional
[9] = target: T1, Hepatocyte growth factor receptor (Homo sapiens, UniProt P08581); details: 25 to 100 nM
T1 sequence (P08581 whole entry): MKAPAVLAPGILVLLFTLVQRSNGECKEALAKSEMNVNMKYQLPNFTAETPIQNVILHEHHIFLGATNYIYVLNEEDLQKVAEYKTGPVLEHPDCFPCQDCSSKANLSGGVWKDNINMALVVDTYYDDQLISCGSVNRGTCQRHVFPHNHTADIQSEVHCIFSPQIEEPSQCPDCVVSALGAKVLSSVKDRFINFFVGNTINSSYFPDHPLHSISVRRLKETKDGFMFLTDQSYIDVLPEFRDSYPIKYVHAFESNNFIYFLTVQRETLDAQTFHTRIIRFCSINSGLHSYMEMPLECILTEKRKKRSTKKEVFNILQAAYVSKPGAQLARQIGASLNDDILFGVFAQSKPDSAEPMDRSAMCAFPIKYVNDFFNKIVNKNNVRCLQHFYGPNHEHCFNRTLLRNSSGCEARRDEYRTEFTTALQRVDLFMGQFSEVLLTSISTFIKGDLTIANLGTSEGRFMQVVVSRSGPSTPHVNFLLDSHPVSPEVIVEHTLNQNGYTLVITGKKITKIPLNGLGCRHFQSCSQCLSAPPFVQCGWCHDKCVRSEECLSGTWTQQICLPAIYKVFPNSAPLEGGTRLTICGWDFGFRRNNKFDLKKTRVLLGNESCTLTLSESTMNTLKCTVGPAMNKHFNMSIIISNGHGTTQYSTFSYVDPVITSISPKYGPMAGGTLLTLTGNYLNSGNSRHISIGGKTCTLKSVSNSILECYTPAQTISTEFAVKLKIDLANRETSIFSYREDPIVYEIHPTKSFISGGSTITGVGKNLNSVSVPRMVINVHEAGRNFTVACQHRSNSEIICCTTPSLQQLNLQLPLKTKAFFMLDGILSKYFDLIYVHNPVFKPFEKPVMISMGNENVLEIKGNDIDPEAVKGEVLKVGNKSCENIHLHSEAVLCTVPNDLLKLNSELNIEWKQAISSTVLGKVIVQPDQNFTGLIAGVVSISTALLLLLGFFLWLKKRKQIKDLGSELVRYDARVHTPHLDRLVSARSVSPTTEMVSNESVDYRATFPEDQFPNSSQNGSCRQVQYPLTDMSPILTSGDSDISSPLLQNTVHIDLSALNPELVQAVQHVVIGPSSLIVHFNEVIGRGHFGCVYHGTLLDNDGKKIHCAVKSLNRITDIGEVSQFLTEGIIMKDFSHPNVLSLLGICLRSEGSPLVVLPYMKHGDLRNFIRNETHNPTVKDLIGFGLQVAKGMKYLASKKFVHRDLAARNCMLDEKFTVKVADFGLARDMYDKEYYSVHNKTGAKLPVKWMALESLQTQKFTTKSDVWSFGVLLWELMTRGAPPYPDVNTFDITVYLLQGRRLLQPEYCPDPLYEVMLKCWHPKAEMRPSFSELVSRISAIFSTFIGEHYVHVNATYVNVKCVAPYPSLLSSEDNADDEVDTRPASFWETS
Description: Competitive inhibition of c-MET phosphorylation (unknown origin) at 25 to 100 nM after 60 mins by Omnia kinase assay

[10] = target: T1, Hepatocyte growth factor receptor; test: Inhibition of c-MET phosphorylation (unknown origin) at 10 uM after 1 hr by Z'-LYTE kinase assay
[11] = target: T1, Hepatocyte growth factor receptor; test: Competitive inhibition of c-MET phosphorylation (unknown origin) after 60 mins by Omnia kinase assay
MDA-MB-231 [12] = test: Antimigratory activity against human MDA-MB-231 cells at 10 uM after 24 hrs by wound healing assay; format: functional, cell-based
MDA-MB-231 [13] = test: Antiinvasive activity against human MDA-MB-231 cells at 20 uM after 24 hrs by Cultrex BME assay; format: functional; details: MDA-MB-231, 24 h
MDA-MB-231 [14] = test: Antimigratory activity against human MDA-MB-231 cells at 50 uM after 24 hrs by wound healing assay; format: functional, cell-based

In the case of `O=C(NCc1ccccc1)OCCc1ccc(OC(=O)NCc2ccccc2)cc1`, the Activity (MCF-10A [1]) is reported as “Non-toxic”, the Activity (MCF-10A [2]) is reported as “Non-toxic” and the inhibition (MDA-MB-231 [3]) is reported as “inactive”. For the same compound, the IC50 (MDA-MB-231 [4]) was > 100 µM and the IC50 (MDA-MB-231 [5]) was > 100 µM.

With `O=C(Cc1ccc(O)c(O)c1)OCCc1ccc(O)cc1` the Activity (MCF-10A [1]) was “Non-toxic”, the Activity (MCF-10A [2]) was “Non-toxic” and the inhibition (MDA-MB-231 [3]) was “inactive”. The IC50 (MDA-MB-231 [4]) was > 100 µM, the inhibition (MDA-MB-231 [6]) was “Active” and the IC50 (MDA-MB-231 [5]) was 41.6 µM.

With `COc1cc(/C=C/C(=O)OCCc2ccc(O)cc2)cc(OC)c1OC` the Activity (MCF-10A [1]) was “Non-toxic”, the Activity (MCF-10A [2]) was “Non-toxic” and the inhibition (MDA-MB-231 [3]) was “inactive”. The IC50 (MDA-MB-231 [4]) was > 100 µM, the inhibition (MDA-MB-231 [6]) was “Active” and the IC50 (MDA-MB-231 [5]) was 46.7 µM.

`CCn1cc(C(=O)OCCc2ccc(O)cc2)c(=O)c2ccc(C)nc21` was tested, and the Activity (MDA-MB-231 [7]) was 36%, the Activity (MCF-10A [1]) was “Non-toxic” and the Activity (MCF-10A [2]) was “Non-toxic”. The Activity (MDA-MB-231 [8]) was 60%.

In the case of `O=C(NCc1ccccc1)OCCc1ccc(O)cc1`, the Activity (MCF-10A [1]) is reported as “Non-toxic”, the Activity (MCF-10A [2]) is reported as “Non-toxic” and the IC50 (MDA-MB-231 [4]) is reported as > 100 µM. The IC50 (MDA-MB-231 [5]) was > 100 µM.

`Cc1[nH]c(/C=C2\C(=O)Nc3ccc(S(=O)(=O)N(C)c4cccc(Cl)c4)cc32)c(C)c1C(=O)N1CCN(C)CC1` was tested, and the inhibition [9] was “Active”.

With `Cc1ccc(S(=O)(=O)NC(=O)OCCc2ccc(O)cc2)cc1` [4-HYDROXYPHENETHYL TOSYLCARBAMATE] the Activity (MCF-10A [1]) was “Non-toxic”, the Activity (MCF-10A [2]) was “Non-toxic” and the inhibition (MDA-MB-231 [3]) was “inactive”. For the same compound, the IC50 (MDA-MB-231 [4]) was > 100 µM and the IC50 (MDA-MB-231 [5]) was > 100 µM.

In the case of `C/C=C(/C=O)[C@@H](CC=O)CC(=O)OCCc1ccc(O)cc1` [(-)-OLEOCANTHAL], the inhibition [10] is reported as 93.4%, the Activity (MCF-10A [1]) is reported as “Non-toxic” and the inhibition [11] is reported as “Active”. For the same compound, the Activity (MCF-10A [2]) was “Non-toxic”, the inhibition (MDA-MB-231 [3]) was “inactive” and the inhibition (MDA-MB-231 [12]) was “Active”.

For `C=C[C@@H]1[C@H](O)OC=C(C(=O)OC)[C@H]1CC(=O)OCCc1ccc(O)cc1` [LIGSTROSIDE AGLYCONE], the inhibition at 20 µM (MDA-MB-231 [13]) was > 50%, the Activity (MCF-10A [1]) was “Non-toxic” and the Activity (MCF-10A [2]) was “Non-toxic”. It also gave an IC50 (MDA-MB-231 [4]) of 80.4 µM, an inhibition at 25 µM (MDA-MB-231 [6]) of 60% and an IC50 (MDA-MB-231 [5]) of 13.8 µM.

For `O=C(/C=C/c1ccc(O)c(O)c1)OCCc1ccc(O)cc1` [TYROSOL CAFFEATE], the inhibition at 20 µM (MDA-MB-231 [13]) was > 50%, the Activity (MCF-10A [1]) was “Non-toxic” and the Activity (MCF-10A [2]) was “Non-toxic”. The inhibition (MDA-MB-231 [3]) was “inactive”, the IC50 (MDA-MB-231 [4]) was > 100 µM and the IC50 (MDA-MB-231 [5]) was > 100 µM.

For `COc1cc(CC(=O)OCCc2ccc(O)cc2)ccc1O` [TYROSOL HOMOVANILLATE], the Activity (MCF-10A [1]) was “Non-toxic”, the Activity (MCF-10A [2]) was “Non-toxic” and the inhibition (MDA-MB-231 [3]) was “inactive”. For the same compound, the IC50 (MDA-MB-231 [4]) was > 100 µM and the IC50 (MDA-MB-231 [5]) was > 100 µM.

With `COc1cc(/C=C/C(=O)OCCc2ccc(O)cc2)cc(OC)c1O` [TYROSOL SINAPATE] the inhibition at 20 µM (MDA-MB-231 [13]) was > 50%, the Activity (MCF-10A [1]) was “Non-toxic” and the Activity (MCF-10A [2]) was “Non-toxic”. For the same compound, the inhibition (MDA-MB-231 [3]) was “inactive” and the inhibition (MDA-MB-231 [6]) was “Active”.

In the case of `COc1cc(C(=O)OCCc2ccc(O)cc2)cc(OC)c1O` [TYROSOL SYRINGATE], the Activity (MCF-10A [1]) is reported as “Non-toxic”, the Activity (MCF-10A [2]) is reported as “Non-toxic” and the inhibition (MDA-MB-231 [3]) is reported as “inactive”. The IC50 (MDA-MB-231 [4]) was > 100 µM, the inhibition at 25 µM (MDA-MB-231 [6]) was 60% and the IC50 (MDA-MB-231 [5]) was 19.4 µM.

In the case of `OCCc1ccc(O)cc1` [TYROSOL], the Activity (MCF-10A [1]) is reported as “Non-toxic”, the Activity (MCF-10A [2]) is reported as “Non-toxic” and the IC50 (MDA-MB-231 [4]) is reported as > 100 µM. The inhibition (MDA-MB-231 [14]) was “inactive” and the IC50 (MDA-MB-231 [5]) was > 100 µM.
